Series [1] has as its system SARS-CoV-2 virus (USA_WA1/2020). Put plainly: microbe, parasite or virus in culture. The class given is cell-based.
Series [2] in a line: in vivo. Further details: species or system S.D. rats. As to conditions: male, S.D., rat, po. As for the experimental part:
Male S.D. rats weighing 160 to 210 g were used for the examination of SJA-6017. Each animal was kept in a room at a temperature of 23±2° C., a humidity of 55±10%, with lighting for 12 hours, and a ventilation frequency of 15 times/hour or more. The rats were fasted from the night before administration and feeding was resumed immediately after the administration. Water was taken freely.
(§1) For the examination of SNJ-1945, four groups of 1, 3, 10, and 30 mg/kg (n=3 for each) were set. For the examination of SJA-6017, two groups of 100 mg/kg (n=3 for each) and 500 mg/kg (n=8 for each) were set.
For SJA-6017, sodium carboxymethylcellulose was dissolved in distilled water to a concentration of 0.5% (w/v). A test substance was suspended in the resultant to prepare samples having concentrations of 10% (for […]) and 2% (for 100 mg/kg).
(§2) SNJ-1945 was orally administered forcibly a single time by using a gastric sonde at doses of 1, 3, 10, and 30 mg/4 mL/kg. SJA-6017 was orally administered forcibly a single time using a gastric sonde at a dose of 5 mL/kg.
In the SJA-6017 administration group, blood samples were collected from the abdominal aorta under ether anesthesia 30 minutes and 1, 2, 4 and 8 hours after administration. The resulting blood was immediately centrifuged at 5,000 rpm for 10 minutes, and plasma was collected.
Plasma (200 μL) obtained from the SJA-6017 administration group was placed in a brown Spitz tube, and 0.01 M HCl (0.5 mL) was added thereto, and diethyl ether (3 mL) was further added, followed by shaking for 10 minutes. Thereafter, centrifugation (3,000 rpm) for 10 minutes was performed to separate the aqueous layer from the diethyl ether phase. The lower aqueous layer alone was frozen in dry-ice acetone, and the diethyl ether layer was separated into another brown Spitz tube. Thereafter, drying was conducted under reduced pressure, and acetonitrile (100 μL) and a 0.01M hydrochloric acid solution (200 μL) of 5 mM phenylhydrazine hydrochloride were added, followed by stirring and dissolving. The solution was transferred to an HPLC vial and allowed to react for 1 hour at 40° C. using a water bath. 150 μL of this sample solution was analyzed by HPLC.
• Detector: UV absorbance spectrophotometer (measurement • wavelength: 272 nm) • Column: Capcell-pak SG-120 (250 mm) • Column temperature: 40° C. • Mobile phase: 0.02 M phosphate buffer (pH of 7.0)/acetonitrile mixture (45:55) • Flow rate: 1.0 mL/min
Cmax and AUC0-8 were calculated from the mean plasma concentration at each time point.

Series [3] concerns SARS-CoV-2 S pseudotype virus (wild type: WT). In kind it is cell-based. To be noted: 100 μM, ACE2-expressing HEK293T cells, GFP fluorescence, FIG. 1.
Series [4] is described as follows: Pharmacokinetic (PK) measurement of SNJ-1945, oral, rats, LC/MS/MS. In kind it is in vivo. To be noted: male, S.D., rat plasma; for AUC(0-t): read-out: AUC0-8. The method, then: Eight-week-old male S.D. rats were used for the examination of SNJ-1945. Each animal was kept in a room at a temperature of 21.6° C. to 22.3° C., a humidity of 47.7% to 60.3%, with lighting for 12 hours/day, and a ventilation frequency of 6 to 20 times/hour. The rats were fasted from the evening of the day before administration, and feeding was resumed after the completion of blood sampling, which was conducted 8 hours after the administration. Water was taken freely.
as §1
For SNJ-1945, methylcellulose was dissolved in water for injection to a concentration of 1 w/v %. A test substance was suspended in the resultant to prepare samples having concentrations of 0.25 mg/mL (for 1 mg/kg), 0.75 mg/mL (for 3 mg/kg), 2.5 mg/mL (for 10 mg/kg), and 7.5 mg/mL (for 30 mg/kg). The administration solution was dispensed into brown glass bottles.
as §2
In the SNJ-1945 administration group, blood samples were taken over time from the subclavian vein 30 minutes and 1, 2, 4, and 8 hours after administration. The obtained blood was immediately centrifuged at 10000×g for 3 minutes, and plasma was collected.
Plasma (20 μL) obtained from the SNJ-1945 administration group was placed in a polypropylene tube, methanol (20 μL) was added thereto, and an internal standard solution (SNJ-1945-d7; 100 μL) was added thereto, followed by stirring for about 5 minutes. Thereafter, centrifugation (10,000×g) was performed for 5 minutes, and 100 μL of a supernatant was transferred to another polypropylene tube. 1 mmol/L EDTA-2K (100 μL) was added, followed by stirring for about 10 seconds. The solution was set in an autosampler and measured within 72 hours.
A Shimadzu 20AD LC System 2 (prominence UFLCXR system; Shimadzu Corporation) and a mass spectrometer (API5000; AB SCIEX) were used as measuring instruments. High-performance liquid chromatography was performed according to the following conditions. Column: CAPCELL CORE AQ, 2.7 μm, 2.1×50 mm (Shiseido Japan Co., Ltd.); column temperature: 60° C.; mobile phase A: 5 mmol/L ammonium hydrogen carbonate/l mmol/LEDTA-2K (500:1, v/v); mobile phase B: methanol; flow rate: 0.8 mL/min.
The mass spectrometer was set according to the following conditions: ionization mode: turbo ion spray; measurement mode: multiple reaction monitoring; detection mode: negative; collision gas: N2, 6 (number of valves opened); curtain gas: N2, 15 psi, ion source gas 1: air, 80 psi; ion source gas 2: air, 80 psi; ion spray voltage: −4500 V; temperature: 500° C.; channel electron multiplier: 1800 V or 2000 V. Monitoring ions and dwell time were set as shown in Table 4 below.
The measurement results of plasma concentration were analyzed by non-compartmental analysis in the pharmacokinetic analysis software Phoenix WinNonlin Ver. 6.3 (Pharsight Corporation as part of Certara), and each pharmacokinetic parameter was calculated in accordance with the method shown in Table 5 below.

Series [5] has as its system ACE2-expressing HEK293T cells.
Where [6] appears, read: Severe acute respiratory syndrome coronavirus 2, Vero C1008, 72 h, read-out: CPE reduction (IC50).
Setting [7] is: Severe acute respiratory syndrome coronavirus 2, Vero C1008, 72 h; read-out: CPE reduction (IC50).

The values below come from US20230390235A1, “THERAPEUTIC AGENT FOR COVID-19” (priority 2020, published 2023).

Read-outs that look alike come from different tables or passages of the source.

Consider `CCN(CC)CCCC(C)Nc1ccnc2cc(Cl)ccc12` (centres unmarked) [Chloroquine], for which the 50% inhibitory concentration (IC50) (in general, the point on the concentration scale where inhibition reaches its midpoint) in series [1] (setting [6]) stood at 2.06 µM.

On to `CCOC(=O)[C@H]1O[C@@H]1C(=O)N[C@@H](CC(C)C)C(=O)NCCC(C)C` [E64d], for which the IC50 in series [1] (read-out: CPE reduction (IC50)) came out at 8.23 µM.

As for `CCN(CCO)CCCC(C)Nc1ccnc2cc(Cl)ccc12` (centres unmarked) [Hydroxychloroquine], in series [1] (setting [6]), the IC50 is 6.49 µM.

Consider `CCC(CC)COC(=O)[C@H](C)N[P@](=O)(OC[C@H]1O[C@@](C#N)(c2ccc3c(N)ncnn23)[C@H](O)[C@@H]1O)Oc1ccccc1` [Remdesivir], for which, in series [1] (setting [6]), the IC50 was determined as 10.6 µM.

As to `CC(C)C[C@@H](C=O)NC(=O)[C@@H](NS(=O)(=O)c1ccc(F)cc1)C(C)C` [SJA-6017], in series [1] (setting [7]), the half-inhibitory concentration (IC50) was determined as 0.21 µM. Also, in series [2] (100 mg/kg), the AUC(0-t) is 679 ng·h/mL and the highest level (Cmax) was 284 ng/mL. Moreover, in series [2] (500 mg/kg), the AUC(0-t) came out at 1840 ng·h/mL and the Cmax – broadly, the peak of the concentration-time curve – was determined as 348 ng/mL.

On to `COCCOCCOC(=O)N[C@@H](CC(C)C)C(=O)N[C@@H](Cc1ccccc1)C(=O)C(=O)NC1CC1` [SNJ-1945], for which the IC50 in series [1] (setting [7]) was found to be 1.52 µM. The “entry inhibition of pseudotype virus into cells” value in series [3] was “inhibits entry”. Moreover, the Cmax in series [4] (single oral dose 1 mg/kg) is 186 ng/mL; in series [4] (single oral dose 3 mg/kg), 391 ng/mL; in series [4] (single oral dose 10 mg/kg), 553 ng/mL; in series [4] (single oral dose 30 mg/kg), 821 ng/mL. Further, the AUC(0-t) in series [4] (single oral dose 1 mg/kg) was found to be 168 ng·h/mL; in series [4] (single oral dose 3 mg/kg), 380 ng·h/mL; in series [4] (single oral dose 10 mg/kg), 691 ng·h/mL; in series [4] (single oral dose 30 mg/kg), 1170 ng·h/mL. In addition, the “highest concentration at which test compound did not show cytotoxicity” value in series [5] amounted to 100 µM.
